In one assay the target is T1, Edg-3 (Homo sapiens, UniProt Q99500).
T1 construct: expressed in transfected cells; host or cells: HTC rat hepatoma cells
As to the kind of experiment: Intracellular calcium (FLIPR) assay, HTC cells expressing Edg-3. It counts as cell-based.

In the next assay the target is Edg-4 (Homo sapiens, UniProt Q9HBW0). The assay can be described thus: Intracellular calcium (FLIPR) assay, HTC cells expressing Edg-4. In kind it is cell-based. On the technique in general: Calcium flux is commonly read through the fluorescence of an indicator in the cells.
Edg-4, sequence (Q9HBW0 1-340 limits assumed): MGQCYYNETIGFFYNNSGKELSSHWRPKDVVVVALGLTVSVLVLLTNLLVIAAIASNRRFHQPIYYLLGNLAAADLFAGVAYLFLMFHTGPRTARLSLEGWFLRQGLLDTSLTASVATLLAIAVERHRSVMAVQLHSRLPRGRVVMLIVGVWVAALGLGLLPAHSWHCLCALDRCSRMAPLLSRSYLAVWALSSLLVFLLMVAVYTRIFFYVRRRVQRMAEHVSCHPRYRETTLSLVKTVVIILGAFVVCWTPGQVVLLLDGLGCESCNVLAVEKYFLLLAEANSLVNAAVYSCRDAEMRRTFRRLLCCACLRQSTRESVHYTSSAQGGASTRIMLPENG
For another assay, the target named is T2, Edg-5 (Homo sapiens, UniProt O95136).
T2 construct: expressed in transfected cells; host or cells: HTC rat hepatoma cells
T2 sequence (O95136 whole entry): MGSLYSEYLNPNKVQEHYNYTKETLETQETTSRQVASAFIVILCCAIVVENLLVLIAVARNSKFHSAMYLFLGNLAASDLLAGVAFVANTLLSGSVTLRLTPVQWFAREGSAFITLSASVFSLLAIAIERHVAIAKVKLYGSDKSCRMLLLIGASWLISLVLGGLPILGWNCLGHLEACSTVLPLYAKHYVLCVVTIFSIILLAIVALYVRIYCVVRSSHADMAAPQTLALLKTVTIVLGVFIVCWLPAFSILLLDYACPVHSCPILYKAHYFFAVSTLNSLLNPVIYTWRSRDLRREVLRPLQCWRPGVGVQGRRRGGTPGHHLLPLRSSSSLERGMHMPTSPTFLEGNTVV
The assay can be described thus: Intracellular calcium (FLIPR) assay, HTC cells expressing Edg-5. It counts as cell-based.

In the next assay the target is T3, Edg-6 (Homo sapiens, UniProt O95977).
T3 construct: expressed in transfected cells; host or cells: HTC rat hepatoma cells
T3 sequence (O95977 1-384): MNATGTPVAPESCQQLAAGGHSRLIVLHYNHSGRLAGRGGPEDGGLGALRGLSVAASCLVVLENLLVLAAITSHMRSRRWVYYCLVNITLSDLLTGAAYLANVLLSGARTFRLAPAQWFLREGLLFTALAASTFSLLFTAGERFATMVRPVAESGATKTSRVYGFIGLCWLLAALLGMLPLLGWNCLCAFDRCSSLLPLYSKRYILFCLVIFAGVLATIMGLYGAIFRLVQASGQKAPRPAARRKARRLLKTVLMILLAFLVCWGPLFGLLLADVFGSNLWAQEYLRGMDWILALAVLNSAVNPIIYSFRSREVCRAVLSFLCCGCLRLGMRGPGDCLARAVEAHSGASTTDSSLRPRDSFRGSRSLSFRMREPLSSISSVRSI
The assay can be described thus: Intracellular calcium (FLIPR) assay, HTC cells expressing Edg-6. It counts as cell-based.

The target in a further assay is T4, Edg-7 (Homo sapiens, UniProt Q9UBY5).
T4 construct: expressed in transfected cells; host or cells: HTC rat hepatoma cells
T4 sequence (Q9UBY5 1-353): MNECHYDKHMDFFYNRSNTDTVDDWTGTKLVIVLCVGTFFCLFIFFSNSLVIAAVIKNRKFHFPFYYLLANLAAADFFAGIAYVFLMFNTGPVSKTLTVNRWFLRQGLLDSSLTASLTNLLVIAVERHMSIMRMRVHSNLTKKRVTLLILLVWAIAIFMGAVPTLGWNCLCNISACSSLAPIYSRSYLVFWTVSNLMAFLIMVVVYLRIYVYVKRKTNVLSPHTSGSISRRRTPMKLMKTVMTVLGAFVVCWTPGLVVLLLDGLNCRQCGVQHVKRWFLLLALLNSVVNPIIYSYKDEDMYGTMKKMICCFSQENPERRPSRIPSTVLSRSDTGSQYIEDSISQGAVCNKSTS
The assay can be described thus: Intracellular calcium (FLIPR) assay, HTC cells expressing Edg-7. It counts as cell-based.

Another assay deals with T5, Edg-8 (Homo sapiens, UniProt Q9H228).
T5 construct: expressed in transfected cells; host or cells: HTC rat hepatoma cells
T5 sequence (Q9H228 whole entry): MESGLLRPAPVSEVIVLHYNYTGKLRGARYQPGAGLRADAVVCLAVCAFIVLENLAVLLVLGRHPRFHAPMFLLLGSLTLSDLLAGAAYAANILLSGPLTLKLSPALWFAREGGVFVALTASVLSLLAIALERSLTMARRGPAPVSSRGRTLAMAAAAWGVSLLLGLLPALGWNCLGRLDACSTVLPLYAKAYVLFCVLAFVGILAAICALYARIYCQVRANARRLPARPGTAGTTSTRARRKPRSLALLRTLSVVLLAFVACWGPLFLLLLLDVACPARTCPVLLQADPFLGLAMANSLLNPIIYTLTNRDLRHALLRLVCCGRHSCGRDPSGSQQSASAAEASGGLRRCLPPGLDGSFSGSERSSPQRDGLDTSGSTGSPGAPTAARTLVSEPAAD
As to the kind of experiment: Intracellular calcium (FLIPR) assay, HTC cells expressing Edg-8. It counts as cell-based.

In assay [1] the test system is human umbilical vein endothelial cells. As to the kind of experiment: Trans-matrigel chemotaxis / invasion assay with HUVECs (modified Boyden chamber). It counts as cell-based. The procedure: In addition to Edg-1, other Edg receptors are also implicated in S1P stimulated chemotaxis, including Edg-3 and Edg-6. To assess the relative roles of the Edg-1 receptors and Edg-3 receptors in S1P stimulated chemotaxis, the ability of S1P to evoke trans-matrigel chemotaxis was tested in the presence of the Edg-1 antagonist 101, the Edg-3 antagonist 301, and the combination of 101 and 301. These experiments were performed according to the migration and invasion assay protocols described in Section 7.12, below. The Edg-3 antagonist 301, 3-Methyl-2-phenyl-quinoline-4-carboxylic acid 4-fluoro-benzylamide, is extensively described in co-pending U.S. application Ser. No. 10/390,426, which is incorporated by reference in its entirety. 301 is identified as compound 101 in U.S. application Ser. No. 10/390,426. Further, 301 is commercially available from Specs (The Netherlands) as compound number AK-968/12971392.
S1P is a strong chemoattractant to human PBMCs. […] Several migration assays were performed to test this hypothesis and to determine the effect of Edg-1 agonists and antagonists on S1P mediated chemotaxis. The migration assays were performed according to the protocol described in Section 7.12, below. The results of theses assays are presented in FIG. 6, FIG. 7, FIG. 8, FIG. 9 and FIG. 13.
(§1) Cells were plated in a 24 well format using Fluoroblok filter insert plates ([…] pore size) or Fluoroblok matrigel coated filter insert plates (Becton Dickinson, San Diego, Calif.). The assay was a modified Boyden Chamber assay in which a cell suspension (1×10^5 cells/ml) was prepared in serum free medium and added to the top chamber. LPA or S1P (doses ranged from 0.1-10 μM in serum free medium) was added to the bottom chamber. Following a 20-24 hour incubation period, the number of cells migrating or invading into the lower chamber was quantitated by transferring the filter insert into a fresh 24-well plate containing 4 μg/ml calcein AM (Molecular Probes, Sunnyvale, Calif.) in Hank's Balanced Salt Solution and staining for one hour.
(§2) Detection was via fluorescent readout at 450 nm excitation/530 nm emission using a fluorimeter. The level of fluorescence correlated with cell number.

In another assay the test system is murine CD4 T cells. The assay can be described thus: Murine CD4 T cell chemotactic response to exodus-2. In kind it is cell-based. The procedure: To assess this modulation and to test the effects of Edg-1 agonists and antagonists on this effect, murine CD4 T cells chemotactic responses to exodus-2 were tested in the presence of S1P and the Edg-1 agonist 104. These experiments were performed according to the migration and invasion assay protocols described in Section 7.12, below.
The effects of Edg-1 antagonists on S1P regulation of the chemotactic response to exodus-2 were also assessed. This experiment was performed according to the migration and invasion assay protocols described in Section 7.12, below. […] Thus, these Edg-1 antagonists can antagonize both aspects of the regulation by S1P of exodus-2-mediated chemotaxis.
as §1, §2

In assay [2] the test system is mouse splenic CD4 T cells. As to the kind of experiment: Lymphocyte migration in mouse dorsal air-pouch model. It counts as in vivo. To be noted: lavage after 24 hours, FIG. 15. The procedure:
To test migration of mouse T cells in vivo, the ability of exodus-2 to attract mouse lymphocytes was assessed in the mouse dorsal air-pouch model. In these experiments, 0.5 ml 1 μM exodus-2 was introduced into a dorsal air-pouch produced by injecting 5 ml of filtered air subcutaneously. Mouse splenic CD4 T cells were fluorescently labeled with FM-DiI (Molecular Probes, Inc., Eugene, Oreg.), then treated with S1P (1 μM), 102, or 104. The treated CD4T cells were introduced into the peritoneal cavity. After 24 hours, lavage (1 ml) from the dorsal air pouch was assayed for fluorescence.

Where [3] appears, read: concentrations as high as 20 μM.
The mark [4] stands for this setting: agonist, concentrations as high as 25 μM.

T1 sequence (Q99500 whole entry): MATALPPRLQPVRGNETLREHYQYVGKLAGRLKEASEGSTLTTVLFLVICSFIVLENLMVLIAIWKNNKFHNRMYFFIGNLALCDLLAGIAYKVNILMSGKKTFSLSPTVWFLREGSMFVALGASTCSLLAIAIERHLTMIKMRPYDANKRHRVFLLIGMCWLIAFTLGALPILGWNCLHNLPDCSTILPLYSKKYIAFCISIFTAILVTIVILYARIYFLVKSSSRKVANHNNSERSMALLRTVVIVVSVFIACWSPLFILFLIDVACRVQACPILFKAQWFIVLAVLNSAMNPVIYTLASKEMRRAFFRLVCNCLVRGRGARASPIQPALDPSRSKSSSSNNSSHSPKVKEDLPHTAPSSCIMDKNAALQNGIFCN

As usually defined, the IC50 is the point on the concentration scale where inhibition reaches its midpoint. Turning to `O=C(c1cccnc1)N1N=C(c2ccc(Br)cc2)CC1(O)C(F)(F)F` (stereo not drawn) [Compound 102], the concentration for half-maximal inhibition (IC50) on Edg-3 (Table 2, S1P-stimulated) is greater than 20 µM; at Edg-4 (Table 2, LPA-stimulated), greater than 20 µM; on Edg-5 (Table 2, S1P-stimulated), greater than 20 µM; at Edg-6 (Table 2, S1P-stimulated), greater than 20 µM; at Edg-7 (Table 2, LPA-stimulated), greater than 20 µM; on Edg-8 (Table 2, S1P-stimulated) it was greater than 20 µM. Moreover, the “inhibition of S1P-stimulated calcium increases in HTC cells expressing Edg-3” value at Edg-3 (setting [3]) is on record as “did not inhibit”. At Edg-4 (setting [3]), the “inhibition of LPA-stimulated calcium increases in HTC cells expressing Edg-4” value is reported as “did not inhibit”. Besides, the “inhibition of S1P-stimulated calcium increases in HTC cells expressing Edg-5” value at Edg-5 (setting [3]) is “did not inhibit”. The “inhibition of S1P-stimulated calcium increases in HTC cells expressing Edg-6” value on Edg-6 (setting [3]) is recorded as “did not inhibit”. For the same compound, the “inhibition of LPA-stimulated calcium increases in HTC cells expressing Edg-7” value on Edg-7 (setting [3]) is “did not inhibit”. The “inhibition of S1P-stimulated calcium increases in HTC cells expressing Edg-8” value on Edg-8 (setting [3]) was “did not inhibit”. Besides, the “inhibition of S1P-induced matrigel invasion” value in assay [1] (HUVEC, 10 μM (FIG. 6)) is “inhibits S1P-induced matrigel invasion”. The “effect on S1P-mediated desensitization of the chemotactic response to exodus-2” value in the assay with murine CD4 T cells (high concentrations of S1P, FIG. 12) was “reverse S1P-mediated desensitization”. The “effect on S1P-mediated stimulation of the chemotactic response to exodus-2” value with murine CD4 T cells (moderate concentrations of S1P, FIG. 12) was “inhibit S1P-mediated stimulation”. In addition, in [2] (co-treatment with S1P), the “reversal of S1P-mediated desensitization in dorsal air-pouch” value is “can be reversed”.

The EC50 is the midpoint of the concentration-response curve. With `COc1cc(C(=O)c2cc(Cl)ccc2N)cc(OC)c1OC` [Compound 104, (2-Amino-5-chlorophenyl)-(3,4,5-trimethoxyphenyl)methanone], the half-maximal effective concentration (EC50) at Edg-3 (agonist), on Edg-4 (agonist), on Edg-5 (agonist), on Edg-6 (agonist), at Edg-7 (agonist) and on Edg-8 (agonist) was greater than 25 µM in each case. For the same compound, the “calcium response in HTC cells expressing Edg-3” value on Edg-3 (setting [4]) was “did not elicit a calcium response”. The “calcium response in HTC cells expressing Edg-4” value at Edg-4 (setting [4]) is “did not elicit a calcium response”. In addition, the “calcium response in HTC cells expressing Edg-5” value on Edg-5 (setting [4]) is “did not elicit a calcium response”. For the same compound, on Edg-6 (setting [4]), the “calcium response in HTC cells expressing Edg-6” value is “did not elicit a calcium response”. In addition, the “calcium response in HTC cells expressing Edg-7” value at Edg-7 (setting [4]) was “did not elicit a calcium response”. On Edg-8 (setting [4]), the “calcium response in HTC cells expressing Edg-8” value is “did not elicit a calcium response”. Moreover, the “potency of invasion stimulation relative to S1P” value in assay [1] (HUVEC, FIG. 7) is “significantly less potent that S1P”. Also, the “stimulation of invasion of Human Umbilical Vein Endothelial cells” value in assay [1] (concentrations between 0.5-100 μM, FIG. 7) is listed as “stimulates invasion”. For the same compound, the “concentration needed relative to S1P for same effect on chemotactic response to exodus-2” value in the assay with murine CD4 T cells (FIG. 11) is listed as “higher concentrations of 104 than S1P are required”. In addition, the “effect on chemotaxis of murine CD4 T cells to exodus-2” value with murine CD4 T cells (low and high concentrations desensitize, moderate stimulate, FIG. 11) is “bell-shaped dose dependant response curve”. Moreover, the “migration of treated lymphocytes to exodus-2 in dorsal air-pouch” value in [2] (CD4 T cells treated ex vivo, given intraperitoneally, S1P 1 μM) is “desensitizes the lymphocytes to attraction by exodus-2”.

Values taken from US20040147562A1, “Methods of treating conditions associated with an EDG-1 receptor” (priority 2002, published 2004).
